Experimental findings from article PMC7778606, “Development of the phenylpyrazolo[3,4-d]pyrimidine-based, insulin-like growth factor receptor/Src/AXL-targeting small molecule kinase inhibitor” (Theranostics, 2021) are described below.

Read-outs that look alike come from different tables or passages of the source. A value given as a limit tells only on which side of the number the result lay.

One data set deals with H460/PmR cells. As to the kind of experiment: MTT assay, viability of pemetrexed-resistant H460/PmR cells. In kind it is cell-based. Particulars: Homo sapiens, NCI-H460, 72 h, three days, read-out: IC50 against the viability. The source says:
(§1) Human lung cancer cell lines (A549, H1299, H1993, H1944, H226B, H226Br, H460, H522, HCC15, and PC9), a diploid human lung fibroblast cell line (Wi38), and the Lewis lung carcinoma (LLC) cell line were purchased from the American Type Culture Collection (ATCC, Manassas, VA, USA) or kindly provided by Dr. John V. Heymach (MD Anderson Cancer Center, Houston, TX, USA). Human retinal pigment epithelial (RPE) cells were kindly provided by Dr. Jeong Hun Kim (College of Medicine, Seoul National University, Seoul, Republic of Korea). HT-22 cells were provided by Dr. Dong Gyu Jo (College of Pharmacy, Sungkyunkwan University, Suwon, Republic of Korea). Lung cancer cells were cultured in RPMI 1640 medium supplemented with 10% fetal bovine serum (FBS) and antibiotics (Welgene, Gyeongsan-si, Republic of Korea). LLC, HT-22, and Wi38 cells were maintained in DMEM supplemented with 10% FBS and antibiotics. RPE cells were maintained in DMEM/F12 supplemented with 10% FBS and antibiotics. […]
(§2) Cells were seeded into 96-well plates at a density of 1-2 × 10^3 cells/well and incubated for 24 h. […] The formazan products were dissolved in dimethyl sulfoxide (DMSO), and the absorbance was measured at 570 nm. […]

In a further data set the test system is IGF-1R. As to the kind of experiment: Western blot, phosphorylation of IGF-1R in H1944 and A549 cells. In kind it is cell-based, human. Conditions: 2.5 μM. The protocol: (§3) Before harvesting, the cells were stimulated with 10% FBS for 20 min. Total cell lysates were prepared with modified radioimmunoprecipitation assay lysis buffer (50 mM Tris-HCl [pH 7.4], 150 mM NaCl, 1 mM EDTA, 0.25% sodium deoxycholate, 1% Triton X-100, 100 mM NaF, 5 mM Na3VO4, 1 mM PMSF, 1 μg/mL aprotinin, 1 μg/mL leupeptin, and 1 μg/mL pepstatin). Equal amounts of protein (20 μg) were subjected to 8% SDS-PAGE and electrically transferred onto polyvinylidene difluoride membranes (Bio-Rad Laboratories, Hercules, CA, USA). Membranes were blocked with blocking buffer (3% BSA in Tris-buffered saline containing 0.1% Tween-20 [TBST]) for 1 h at room temperature. The membranes were incubated with primary antibodies diluted in 3% BSA in TBST (1:1,000) overnight at 4 °C, washed multiple times with TBST, and incubated with secondary antibodies diluted in 3% nonfat dry milk in TBST (1:5,000) for 1 h at room temperature. The membranes were washed multiple times with TBST and visualized using an enhanced chemiluminescence detection kit (Thermo Fisher Scientific). Densitometric analysis was performed using ImageJ software.

Another data set relates to Wi38 cells. Kind of data set: MTT assay, viability of Wi38 human lung fibroblasts. In kind it is cell-based. Conditions: WI-38, 72 h; Wi38 human lung fibroblasts, MTT assay, three days; read-out: IC50 against the viability. The protocol: (§4) Cells were seeded into 96-well plates at a density of 1-2 × 10^3 cells/well and incubated for 24 h. Cells were treated with vehicle or various concentrations of test compounds for two (PC9 and PC9/ER cells) or three (other cells) days. Cells were further incubated with MTT solution (final concentration of 500 μg/mL) for 4 h at 37 °C. The formazan products were dissolved in dimethyl sulfoxide (DMSO), and the absorbance was measured at 570 nm. The data are presented as a percentage of the control group.

Test in data set [1]: as above
In kind it is cell-based. Particulars: human, Wi38 lung fibroblasts; Wi38, 10 μM; read-out: percentage of cell viability. The protocol: as §4

In the next data set the test system is H226Br cells. As to the kind of experiment: MTT assay, viability of H226Br cells. Particulars: Homo sapiens, 72 h, three days, read-out: IC50 against the viability. In kind it is cell-based. The protocol: as §4
On the technique in general: Tetrazolium assays rely on reduction of a dye to a coloured formazan, in cell work by metabolically active cells.

In a further data set the test system is NSCLC cells. Kind of data set: Anchorage-independent (soft agar) colony formation assay. In kind it is cell-based, human. Particulars: subset of NSCLC cells. The protocol: Cells (2-3 × 10^3 cells/well) were mixed with sterile 1% agar solution (final concentration of 0.4%) and poured onto 1% base agar in 24-well plates. After solidification of the top agar, LL6 was diluted in complete medium and added to the agar. Cells embedded in the top agar were incubated for 10-14 days at 37 °C with 5% CO2. The LL6-containing medium was changed twice a week. After incubation, the colonies were stained with MTT solution, imaged, and counted using ImageJ software (National Institutes of Health, Bethesda, […], USA).

A further data set relates to AXL. As to the kind of experiment: Western blot, phosphorylation of AXL in H1944 and A549 cells. In kind it is cell-based, human. Conditions: 2.5 μM. The protocol:
as §3
For orientation: A western blot detects proteins with antibodies after separation by electrophoresis.

Data set [2] can be described thus: Pharmacokinetic study in rats. In kind it is in vivo, SD rats. The protocol: The pharmacokinetic properties of LL6 were investigated in SD rats (n = 3). The left femoral artery and vein were catheterized with polyethylene tube (Intramedic^TM PE-50; Becton-Dickinson Diagnostics, MD, USA) under Zoletil (Virbac, Carros, France) anesthesia (50 mg/kg, intramuscular injection). LL6 was dissolved in DMSO/PEG 400/normal saline mixture (35:35:30, v/v/v) and single dose solution (1 mg/kg) was administered to rat intravenously. Approximately 150 µL of blood samples were collected via femoral artery at predetermined time (1, 3, 5, 10, 15, 30, 60, 120 and 180 min) and equivalent volume of normal saline solution with 20 U/mL of heparin was replenished to prevent blood coagulation. After centrifugation of the sample at 16,000 × g for 5 min, 50 µL aliquot of plasma samples were stored at -20 °C until HPLC-MS/MS analysis. The Pharmacokinetic parameters, including terminal half-life (T½), area under the plasma concentration-time curve from time zero to time last (AUClast), area under the plasma concentration-time curve from time zero to time infinity (AUCinf), volume of distribution at steady-state (Vss) and mean residence time (MRT) were calculated using non-compartmental analysis (WinNonlin, version 3.1, NCA 201; Pharsight, Mountain View, CA, USA).

The next data set relates to H226B cells. Kind of data set: MTT assay, viability of H226B cells. In kind it is cell-based. Conditions: Homo sapiens, 72 h, three days, read-out: IC50 against the viability. The protocol:
as §4

Another data set has as its system H1299/CsR cells. As to the kind of experiment: MTT assay, viability of cisplatin-resistant H1299/CsR cells. In kind it is cell-based. Conditions: Homo sapiens, NCI-H1299, 72 h, three days, read-out: IC50 against the viability.
Excerpt: as §1, §2

[3] abbreviates: SD, rat, plasma, rats, intravenous, 1 mg/kg.

Turning to `Nc1ncnc2c1c(-c1ccc(Cl)cc1)nn2CCn1cc(COc2ccc(Nc3nccc(Nc4cnc5ccccc5c4)n3)cc2)nn1` [LL6], the IC50 (usually the concentration that inhibits the measured activity by half) was 3.64 µM in the data set on H460/PmR cells; above 10 µM with Wi38 cells; 4.32 µM in the data set on H226Br cells; 1.37 µM in the data set with H226B cells; 1.07 µM in the data set with H1299/CsR cells. Besides, in the data set on IGF-1R, the “activation (phosphorylation) of IGF-1R” value is recorded as “efficiently suppressed”. For the same molecule, the viability (commonly a read-out of living cells in per cent, often relative to untreated cells) at 3 days, 10 µM in data set [1] is above 60%. In addition, the “colony formation, anchorage-independent” value in the data set on NSCLC cells was “significantly suppressed”. Also, the “activation (phosphorylation) of AXL” value in the data set on AXL is reported as “efficiently suppressed”. In addition, the C0 was 33.3 µM in data set [2] (SD, rat, plasma, 1 mg/kg, rats, intravenous, read-out: theoretical initial plasma concentration) and 22700 ng/mL in data set [2] (SD, rat, plasma, rats, intravenous, 1 mg/kg, read-out: C0 (theoretical initial plasma concentration)). Besides, the AUC(0-inf) (commonly total exposure, with the tail of the curve extrapolated) in data set [2] (setting [3]) is 852 ng·h/mL. For the same molecule, the AUC(0-t) (in general, exposure summed from dosing to a finite time, without extrapolation to infinity) in data set [2] (setting [3]) was 850 ng·h/mL. Besides, in data set [2] (setting [3]), the mean residence time (MRT) (as a rule, a mean duration of stay, worked out from the concentration-time curve) was 20.3 min. In [2] (setting [3]), the clearance – broadly, the rate of elimination divided by the concentration – was determined as 19.3 ± 1.2 mL/min/kg. Moreover, in data set [2] (setting [3]), the half-life – broadly, the time in which the quantity being followed falls by half – was 29.1 ± 10 min. In data set [2] (SD, rat, plasma, rats, intravenous, 1 mg/kg, read-out: Vss), the Vd was 0.392 ± 0.186 L/kg. The elimination in plasma entry in data set [2] (rats, intravenous) was “rapid”. Further, the oral bioavailability entry in [2] (suggested by the pharmacokinetic study) is “poor”.
